Assay results: patent US6806370B2, “NK-1 receptor active amine oxide prodrugs” (Hoffmann-La Roche Inc., priority 2000, dated 2004)

Tests used:
Type in all cases: in vitro ADME
Conditions in all cases: 1 μg/mL, 37° C.
[1] = Conversion of prodrug to drug in plasma (human)
Method: (§1) The conversion of N-oxide prodrugs to the corresponding parent compounds is due to a reduction mechanism. […] The presence of an oxidant in the work-up solution should help preventing the reduction of the N-oxides.
(§2) Conversion in plasma: 10 μLs of a 100 μg/mL DMSO solution of the pro-drug were added to 1 mL plasma to reach a final concentration of 1 μg/mL. The incubation was performed at 37° C. and 8 aliquots were taken at different time points over 30 min. These aliquots were treated with 3 volumes of cold MeOH containing H2O2 (final concentration 10% v/v) and centrifuged at 3500 g for 20 min at 10° C. The supernatant was directly used to determine the drug levels by LC-MS-MS (HPLC chromatography on reversed phase column X-Terra MS C18 […] 2.1×30 mm Waters at 40° C., using a polarity gradient MeOH/Form.Ac.
(§3) 1% 20/80/MeOH; run time; 3.0 min; inj. Vol.: 10 μL; Flow: […] and MS/MS detection on a PE Sciex API-2000 MS/MS spectrometer; ion source: Turbospray; ionisation mode: ESP+).
(§4) Sample stability (plasma and blood): The final matrix were first prepared (plasma or blood treated with 3 volumes of cold MeOH containing H2O2—10% v/v—and centrifuged at 3500 g for 20 min at 10° C.) and then incubated at 37° C. into two tubes; the pro-drug or the drug were then incubated and finally their concentration determined by LC-MS-MS as described above.

[2] = Conversion of prodrug to drug in plasma (dog)
Method: as §1, §2, §3, §4

[3] = Conversion of prodrug to drug in plasma (rat)
Method: as §1, §2, §3, §4

Structure (SMILES) | t½ conversion prodrug to drug, Human plasma [1] [h] | t½ conversion prodrug to drug, Dog plasma [2] [h] | t½ conversion prodrug to drug, Rat plasma [3] [h]
Cc1ccccc1-c1cc([N+]2([O-])CCOCC2)ncc1N(C)C(=O)C(C)(C)c1cc(C(F)(F)F)cc(C(F)(F)F)c1 [Example 1, 2-(3,5-Bis-trifluoromethyl-phenyl)-N-methyl-N-[6-(4-oxy-morpholin-4-yl)-4-o-tolyl-pyridin-3-yl]-isobutyramide] | 8 | 18 | 4
Cc1ccccc1-c1cc([N+]2([O-])CCOCC2)ncc1C(=O)N(C)Cc1cc(C(F)(F)F)cc(C(F)(F)F)c1.O [Example 16, N-(3,5-Bis-trifluoromethyl-benzyl)-N-methyl-6-(4-oxy-morpholin-4-yl)-4-o-tolyl-nicotinamide monohydrate] | 6 | 16 | 2
CN(C(=O)C(C)(C)c1cc(C(F)(F)F)cc(C(F)(F)F)c1)c1cnc([N+]2([O-])CCOCC2)cc1-c1ccccc1Cl [Example 2, 2-(3,5-Bis-trifluoromethyl-phenyl)-N-[4-(2-chloro-phenyl)-6-(4-oxy-morpholin-4-yl)-pyridin-3-yl]-N-methyl-isobutyramide] | 12 | 18 | 5
